Counter-ions that a name gives are not always drawn.

One assay deals with human α7 nAChRs transiently expressed in Xenopus laevis oocytes (Homo sapiens (Human), UniProt P36544). In words: Oocyte electrophysiology screen (TEVC). Type of assay: cell-based. The following applies: 0.01 mM test compound, peak current relative to 0.2 mM ACh. The procedure: Oocyte Electrophysiology Screen (% ACh @ 10 μM Oocyte)
human α7 nAChRs transiently expressed in Xenopus laevis oocytes, sequence (P36544 23-502 limits assumed): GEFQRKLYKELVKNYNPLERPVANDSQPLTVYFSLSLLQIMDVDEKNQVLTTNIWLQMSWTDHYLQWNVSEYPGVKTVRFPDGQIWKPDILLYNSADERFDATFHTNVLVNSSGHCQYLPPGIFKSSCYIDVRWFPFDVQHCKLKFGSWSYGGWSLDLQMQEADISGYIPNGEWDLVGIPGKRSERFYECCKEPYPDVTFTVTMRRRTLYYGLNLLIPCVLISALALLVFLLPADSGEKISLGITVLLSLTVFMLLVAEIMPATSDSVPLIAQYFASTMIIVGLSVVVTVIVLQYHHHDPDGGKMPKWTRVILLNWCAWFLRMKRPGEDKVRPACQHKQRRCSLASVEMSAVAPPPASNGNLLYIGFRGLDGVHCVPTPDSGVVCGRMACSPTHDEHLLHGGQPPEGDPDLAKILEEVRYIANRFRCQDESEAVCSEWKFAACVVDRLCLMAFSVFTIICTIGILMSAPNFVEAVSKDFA
The Oocyte Electrophysiology Screen studies were performed under contract by HiQScreen Geneva, Switzerland. All experiments were carried out at human α7 nAChRs transiently expressed in Xenopus laevis oocytes using the method of cDNA expression. Currents evoked by acetylcholine or other agonist ligands were recorded using the standard two-electrode voltage-clamp configuration (TEVC). X. laevis oocytes were prepared and injected using standard procedures. Briefly, ovaries were harvested from X. laevis females that were deeply anesthetized and pithed following the animal rights rule from the Geneva canton. A small piece of ovary was isolated for immediate preparation while the remaining part was placed at 4° C. in a sterile Barth solution containing in mM: NaCl 88, KCl 1, NaHCO3 2.4, HEPES 10, MgSO4.7H2O 0.82, Ca(NO3)2.4H2O 0.33, CaCl2.6H2O 0.41, at pH 7.4, and supplemented with 20 μg/mL of kanamycin, 100 unit/mL penicillin and 100 μg/mL streptomycin. […] Cells were held at −80 mV. Data were filtered at 10 Hz, captured at 100 Hz and analyzed using proprietary data acquisition and analysis software running under Matlab (Mathworks Inc.).
Experimental Protocol and Analysis
After establishing a baseline transmembrane current, acetylcholine (ACh) was applied for 5 seconds at a concentration of 0.2 mM to establish a control ACh-evoked current response. Following a wash period of 90 s in OR2 medium (free of ACh), cells were then exposed for 30 s to the test compound applied at 0.01 mM. The same reference ACh test pulse was immediately given at the end of the compound exposure and again after 90 s of recovery in OR2 Medium (free of ACh or test compound). All data were determined in triplicate. The response evoked by the test compound was expressed as a percentage of that evoked by ACh: Response (% ACh)=100×(Itest/IACh) where Itest is the peak inward current measured during exposure to 0.01 mM of test compound and IACh is the peak inward current measured in the presence of ACh.
As for `O=C(N[C@H]1C2CCN(CC2)C12CC2)c1cnn2ncccc12` [(S)-80, (S)—N-(1′-azaspiro[cyclopropane-1,2′-bicyclo[2.2.2]octan]-3′-yl)pyrazolo[1,5-b]pyridazine-3-carboxamide hydrochloride], the “% ACh @ 10 μM Oocyte” value is on record as 2 % ACh. Same read-out and setting: the same measure for `CC1(C)[C@H](NC(=O)c2nc3ccccc3s2)C2CCN1CC2` [(R)-29, (R)—N-(2,2-dimethylquinuclidin-3-yl)benzo[d]thiazole-2-carboxamide hydrochloride]: 448 % ACh; for `CC1(C)[C@H](NC(=O)c2cc3ccccc3s2)C2CCN1CC2` [(R)-1, (R)—N-(2,2-dimethylquinuclidin-3-yl)benzo[b]thiophene-2-carboxamide hydrochloride]: 401 % ACh. On to `O=C(N[C@H]1C2CCN(CC2)C12CC2)c1cc2c(cn1)OCCO2` [(S)-76, (S)—N-(1′-azaspiro[cyclopropane-1,2′-bicyclo[2.2.2]octan]-3′-yl)-2,3-dihydro-[1,4]dioxino[2,3-c]pyridine-7-carboxamide hydrochloride], for which the “% ACh @ 10 μM Oocyte” value is given as 1 % ACh. On the same count and under the same terms, with `O=C(N[C@@H]1C2CCN(CC2)C12CC2)c1cnc2occc2c1` [(R)-89, (R)—N-(1′-azaspiro[cyclopropane-1,2′-bicyclo[2.2.2]octan]-3′-yl)furo[2,3-b]pyridine-5-carboxamide hydrochloride] the figure was 0 % ACh. Regarding `CC1(C)[C@H](NC(=O)c2cc3ccc(C4CC4)c(F)c3s2)C2CCN1CC2.Cl` [(R)-213, (R)-6-cyclopropyl-N-(2,2-dimethylquinuclidin-3-yl)-7-fluorobenzo[b]thiophene-2-carboxamide hydrochloride], the “% ACh @ 10 μM Oocyte” value came to 60 % ACh. Regarding `N#Cc1ccc2cc(C(=O)N[C@@H]3C4CCN(CC4)C34CC4)sc2c1` [(R)-104, (R)-6-cyano-N-(1′-azaspiro[cyclopropane-1,2′-bicyclo[2.2.2]octan]-3′-yl)benzo[b]thiophene-2-carboxamide hydrochloride], the “% ACh @ 10 μM Oocyte” value turned out to be 20 % ACh. `CC1(C)[C@@H](NC(=O)c2nc3ccccc3s2)C2CCN1CC2` [(S)-29, (S)—N-(2,2-dimethylquinuclidin-3-yl)benzo[d]thiazole-2-carboxamide hydrochloride]: the “% ACh @ 10 μM Oocyte” value came to 2 % ACh.

Turning to `CC1(C)[C@H](NC(=O)c2cc3ccc(Cl)cc3o2)C2CCN1CC2.Cl` [(R)-216, (R)-6-chloro-N-(2,2-dimethylquinuclidin-3-yl)benzofuran-2-carboxamide hydrochloride], the “% ACh @ 10 μM Oocyte” value is 184 % ACh. Still for that read-out and setting: the same measure for `O=C(N[C@@H]1C2CCN(CC2)C12CC2)c1cc2ccc(F)c(C(F)(F)F)c2s1` [(R)-153, (R)-6-fluoro-N-(1′-azaspiro[cyclopropane-1,2′-bicyclo[2.2.2]octan]-3′-yl)-7-(trifluoromethyl)benzo[b]thiophene-2-carboxamide hydrochloride]: 114 % ACh; for `CC1(C)[C@@H](NC(=O)c2cc3ccc(C4CC4)cc3s2)C2CCN1CC2` [(S)-18, (S)-6-cyclopropyl-N-(2,2-dimethylquinuclidin-3-yl)benzo[b]thiophene-2-carboxamide hydrochloride]: 1 % ACh. Regarding `O=C(N[C@H]1C2CCN(CC2)C12CC2)c1cc2cccnc2s1` [(S)-81, (S)—N-(1′-azaspiro[cyclopropane-1,2′-bicyclo[2.2.2]octan]-3′-yl)thieno[2,3-b]pyridine-2-carboxamide hydrochloride], the “% ACh @ 10 μM Oocyte” value was 1 % ACh. `CC1(C)[C@H](NC(=O)c2cc3ccc(N4CCC(F)(F)CC4)cc3s2)C2CCN1CC2` [(R)-45, (R)-6-(4,4-difluoropiperidin-1-yl)-N-(2,2-dimethylquinuclidin-3-yl)benzo[b]thiophene-2-carboxamide hydrochloride]: the “% ACh @ 10 μM Oocyte” value was determined as 1 % ACh.

Turning to `CC1(C)[C@@H](NC(=O)c2ccc3ccsc3c2)C2CCN1CC2` [(S)-5, (S)—N-(2,2-dimethylquinuclidin-3-yl)benzo[b]thiophene-6-carboxamide hydrochloride], the “% ACh @ 10 μM Oocyte” value is 9 % ACh. For the compound `O=C(NC1C2CCN(CC2)C12CC2)c1cc2ccc(C(F)(F)F)cc2s1` (single isomer, unassigned; enantiomer2) [63b, N-(1′-azaspiro[cyclopropane-1,2′-bicyclo[2.2.2]octan]-3′-yl)-6-(trifluoromethyl)benzo[b]thiophene-2-carboxamide-enantiomer2], the “% ACh @ 10 μM Oocyte” value is 3 % ACh. With `COc1ccc2sc(C(=O)N[C@@H]3C4CCN(CC4)C3(C)C)cc2c1` [(R)-21, (R)—N-(2,2-dimethylquinuclidin-3-yl)-5-methoxybenzo[b]thiophene-2-carboxamide hydrochloride], the “% ACh @ 10 μM Oocyte” value was determined as 73 % ACh.

As to `Cl.Cn1cnc2ccc(C(=O)N[C@@H]3C4CCN(CC4)C3(C)C)cc21` [(R)-206, (R)-N-(2,2-dimethylquinuclidin-3-yl)-1-methyl-1H-benzo[d]imidazole-6-carboxamide hydrochloride], the “% ACh @ 10 μM Oocyte” value was found to be 0 % ACh. As for `O=C(N[C@H]1C2CCN(CC2)C12CC2)c1nc2ccccc2s1` [(S)-82, (S)—N-(1′-azaspiro[cyclopropane-1,2′-bicyclo[2.2.2]octan]-3′-yl)benzo[d]thiazole-2-carboxamide hydrochloride], the “% ACh @ 10 μM Oocyte” value is on record as 2 % ACh. Same read-out and setting: the same measure for `CC1(C)[C@H](NC(=O)c2ccc3ccoc3c2)C2CCN1CC2` [(R)-31, (R)—N-(2,2-dimethylquinuclidin-3-yl)benzofuran-6-carboxamide hydrochloride]: 294 % ACh.

Staying with this assay, now noted: 0.01 mM test compound, peak current relative to 0.2 mM ACh; hydrochloride.
As for `COc1ccc2cc(C(=O)NC3C4CCN(CC4)C34CC4)sc2c1` (single isomer, unassigned; enantiomer2) [73b, 6-methoxy-N-(1′-azaspiro[cyclopropane-1,2′-bicyclo[2.2.2]octan]-3′-yl)benzo[b]thiophene-2-carboxamide-enantiomer2 hydrochloride], the “% ACh @ 10 μM Oocyte” value turned out to be 1 % ACh.

Take `Cc1ccc2cc(C(=O)NC3C4CCN(CC4)C34CC4)sc2c1` (single isomer, unassigned; enantiomer2) [68b, 6-methyl-N-(1′-azaspiro[cyclopropane-1,2′-bicyclo[2.2.2]octan]-3′-yl)benzo[b]thiophene-2-carboxamide-enantiomer2 hydrochloride]: the “% ACh @ 10 μM Oocyte” value is listed as 5 % ACh. Still for that read-out and setting: the same measure for `COc1ccc2sc(C(=O)NC3C4CCN(CC4)C34CC4)cc2c1` (single isomer, unassigned; enantiomer1) [74a, 5-methoxy-N-(1′-azaspiro[cyclopropane-1,2′-bicyclo[2.2.2]octan]-3′-yl)benzo[b]thiophene-2-carboxamide-enantiomer1 hydrochloride]: 32 % ACh; for `O=C(NC1C2CCN(CC2)C12CC2)c1cc2cc(C(F)(F)F)ccc2s1` (single isomer, unassigned; enantiomer1) [70a, N-(1′-azaspiro[cyclopropane-1,2′-bicyclo[2.2.2]octan]-3′-yl)-5-(trifluoromethyl)benzo[b]thiophene-2-carboxamide-enantiomer1 hydrochloride]: 2 % ACh; for `O=C(NC1C2CCN(CC2)C12CC2)c1cc2cc(C3CC3)ccc2s1` (single isomer, unassigned; enantiomer2) [72b, 5-cyclopropyl-N-(1′-azaspiro[cyclopropane-1,2′-bicyclo[2.2.2]octan]-3′-yl)benzo[b]thiophene-2-carboxamide-enantiomer2 hydrochloride]: 1 % ACh. On the same count and under the same terms, with `O=C(NC1C2CCN(CC2)C12CC2)c1cc2ccc(C3CC3)cc2s1` (single isomer, unassigned; enantiomer2) [71b, 6-cyclopropyl-N-(1′-azaspiro[cyclopropane-1,2′-bicyclo[2.2.2]octan]-3′-yl)benzo[b]thiophene-2-carboxamide-enantiomer2 hydrochloride] the figure was 2 % ACh; with `O=C(NC1C2CCN(CC2)C12CC2)c1cc2ccc(C3CC3)cc2s1` (single isomer, unassigned; enantiomer1) [71a, 6-cyclopropyl-N-(1′-azaspiro[cyclopropane-1,2′-bicyclo[2.2.2]octan]-3′-yl)benzo[b]thiophene-2-carboxamide-enantiomer1 hydrochloride], 739 % ACh. Same read-out and setting: the same measure for `Cc1ccc2sc(C(=O)NC3C4CCN(CC4)C34CC4)cc2c1` (single isomer, unassigned; enantiomer2) [69b, 5-methyl-N-(1′-azaspiro[cyclopropane-1,2′-bicyclo[2.2.2]octan]-3′-yl)benzo[b]thiophene-2-carboxamide-enantiomer2 hydrochloride]: 1 % ACh.

The values above are taken from patent US10183938B2, “Geminal substituted quinuclidine amide compounds as agonists of α-7 nicotonic acetylcholine receptors” (AXOVANT SCIENCES GMBH, priority 2014, dated 2019).
